This note sets out measurements from ChEMBL document CHEMBL3044923, “Synthesis of 9-O-glycosyl-berberine derivatives and bioavailability evaluation” (Med Chem Res, 2012).

Broadly, the AUC is concentration integrated over time. Read a low AUC as low exposure. As a reminder, the Tmax is the time from dosing to the highest level. The term Cmax denotes the peak of the concentration-time curve.

Common to all, as to design: dose 100 mg/kg, route oral
Holding throughout (conditions): in vivo

Data set [1] concerns Rattus norvegicus. In words: AUC in SPF Rattus norvegicus (rat) at 100 mg/kg, po. The class given is ADME, organism-based, Plasma.
Another data set concerns Plasma. In words: Stability in SPF Rattus norvegicus (rat) plasma assessed as berberine formation at 100 mg/kg, po. The class given is ADME, organism-based.
Data set [2] relates to Rattus norvegicus. Description: Half life in SPF Rattus norvegicus (rat) at 100 mg/kg, po. In kind it is ADME, organism-based.
Data set [3] deals with Rattus norvegicus. In words: Tmax in SPF Rattus norvegicus (rat) at 100 mg/kg, po. The class given is ADME, organism-based.
Data set [4] concerns Rattus norvegicus. Description: Cmax in SPF Rattus norvegicus (rat) at 100 mg/kg, po. In kind it is ADME, organism-based.

For `COc1ccc2cc3[n+](cc2c1OC1OC[C@@H](O)[C@@H](O)[C@@H]1O)CCc1cc2c(cc1-3)OCO2` (stereo partly drawn) [9-O-ARABINOSYL-BERBERINE], the area under the curve (AUC) in the data set with Rattus norvegicus [1] is 205.146 ng·h/mL. For the same compound, the Stability result in the data set with Plasma is reported as “Unstable”. Besides, the t1/2 in the data set on Rattus norvegicus [2] amounted to 7.43 h. Besides, the Tmax in the data set with Rattus norvegicus [3] turned out to be 3 h. In the data set on Rattus norvegicus [4], the peak level (Cmax) was 48.7 ng/mL.

As for `CCCCCCCCCCCCOc1c(OC)ccc2cc3[n+](cc12)CCc1cc2c(cc1-3)OCO2` [9-O-DODECYL-BERBERINE], in the data set on Rattus norvegicus [1], the AUC stood at 14.592 ng·h/mL. In the data set on Plasma, the Stability result was “Stable”. Further, the t1/2 with Rattus norvegicus [2] is 7.86 h. Moreover, the Tmax with Rattus norvegicus [3] is 3.5 h. In the data set on Rattus norvegicus [4], this compound yielded a Cmax of 3.71 ng/mL.

`COc1ccc2cc3[n+](cc2c1OC[C@H](O)[C@H](O)CO)CCc1cc2c(cc1-3)OCO2` [9-O-ERYTHROL-BERBERINE] registered an AUC in the data set on Rattus norvegicus [1] of 180.316 ng·h/mL. In the data set on Plasma, the Stability result is “Unstable”. The t1/2 in the data set on Rattus norvegicus [2] worked out at 7.31 h. For the same compound, in the data set with Rattus norvegicus [3], the Tmax stood at 3 h. In addition, the concentration with Rattus norvegicus [4] peaked (Cmax) at 37.5 ng/mL.

As to `COc1ccc2cc3[n+](cc2c1OC1O[C@H](CO)[C@@H](O)[C@H](O)[C@H]1O)CCc1cc2c(cc1-3)OCO2` (stereo partly drawn) [9-O-GLUCOSYL-BERBERINE], the AUC with Rattus norvegicus [1] worked out at 268.94 ng·h/mL. Moreover, the Stability entry in the data set with Plasma was “Unstable”. Also, in the data set on Rattus norvegicus [2], the t1/2 worked out at 7.58 h. Moreover, the time of peak concentration (Tmax) in the data set with Rattus norvegicus [3] was 3 h. This compound showed a Cmax in the data set with Rattus norvegicus [4] of 63.4 ng/mL.

`CCCCCCCCOc1c(OC)ccc2cc3[n+](cc12)CCc1cc2c(cc1-3)OCO2` [9-O-OCTYL-BERBERINE] displayed an AUC in the data set with Rattus norvegicus [1] of 17.329 ng·h/mL. This compound also had a t1/2 in the data set on Rattus norvegicus [2] of 7.85 h. Also, the Tmax in the data set on Rattus norvegicus [3] is 3 h. The concentration with Rattus norvegicus [4] peaked (Cmax) at 4.39 ng/mL.

Take `COc1ccc2cc3[n+](cc2c1OC)CCc1cc2c(cc1-3)OCO2` [BERBERINE]: in the data set on Rattus norvegicus [1], the AUC worked out at 24.184 ng·h/mL. In addition, in the data set with Rattus norvegicus [2], the t1/2 came out at 7.88 h. Also, the Tmax in the data set with Rattus norvegicus [3] came to 2 h. Besides, the Cmax in the data set with Rattus norvegicus [4] turned out to be 6.79 ng/mL.
